Where two headings read alike, the source gives them in different places.
How the values were obtained:
[1] = test system: HeLa cells; assay: Proliferation assay, crystal violet (Method 3); type: cell-based, human; settings: 4 days, read-out: Inhibition of HeLa cell proliferation IC50
Description: (§1) Cultivated tumour cells (HeLa, human cervical tumour cells, ATCC CCL-2; NCI-H460, human non-small cell lung carcinoma cells, ATCC HTB-177; DU 145, hormone-independent human prostate carcinoma cells, ATCC HTB-81; HeLa-MaTu-ADR, multidrug-resistant human cervical carcinoma cells, EPO-GmbH Berlin; Caco-2, human colorectal carcinoma cells, ATCC HTB-37; B16F10, mouse melanoma cells, ATCC CRL-6475) were plated at a density of 5,000 cells/well (DU145, HeLa-MaTu-ADR), 3,000 cells/well (NCI-H460, HeLa), 1,500 cells/well (Caco-2), or 1,000 cells/well (B16F10) in a 96-well multititer plate in 200 μL of their respective growth medium supplemented 10% fetal calf serum. After 24 hours, the cells of one plate (zero-point plate) were stained with crystal violet (see below), while the medium of the other plates was supplemented with the test substances in various concentrations (0 μM, as well as in the range of 0.0001-10 μM; the final concentration of the solvent dimethyl sulfoxide was adjusted to 0.1%) using a Hewlett-Packard HP D300 Digital Dispenser. The cells were incubated for 4 days in the presence of test substances. Cell proliferation was determined by staining the cells with crystal violet: the cells were fixed by adding 20 μl/measuring point of an 11% glutaric aldehyde solution for 15 minutes at room temperature. After three washing cycles of the fixed cells with water, the plates were dried at room temperature. The cells were stained by adding 100 μl/measuring point of a 0.1% crystal violet solution (pH 3.0). After three washing cycles of the stained cells with water, the plates were dried at room temperature. The dye was dissolved by adding 100 μl/measuring point of a 10% acetic acid solution. The extinction was determined by photometry at a wavelength of 595 nm. The change of cell number, in percent, was calculated by normalization of the measured values to the extinction values of the zero-point plate (=0%) and the extinction of the untreated (0 μm) cells (=100%). The IC50 values (inhibitory concentration at 50% of maximal effect) were determined by means of a 4 parameter fit.

[2] = test system: MOLM-13 cells; assay: Proliferation assay, Cell Titre-Glo viability (Method 3); type: cell-based; settings: Homo sapiens; MOLM-13, 72-hour exposure; read-out: Inhibition of MOLM-13 cell proliferation IC50
Description: (§2) A2780 human ovarian carcinoma cells (ECACC #93112519) and non-adherent MOLM-13 human acute myeloid leukemia cells (DSMZ ACC 554) were seeded at a density of 3,000 cell/well (A2780) or 5,000 cells/well (MOLM-13) in a 96-well multititer plate in 150 μL of growth medium supplemented 10% fetal calf serum. After 24 hours, cell viability of one plate (zero-point plate) was determined with the Cell Titre-Glo Luminescent Cell Viability Assay (Promega), while the medium of the other plates was supplemented with the test substances in various concentrations (0 μM, as well as in the range of 0.0001-10 μM; the final concentration of the solvent dimethyl sulfoxide was adjusted to 0.1%) using a Hewlett-Packard HP D300 Digital Dispenser. Cell viability was assessed after 72-hour exposure with the Cell
(§3) Titre-Glo Luminescent Cell Viability Assay (Promega). IC50 values (inhibitory concentration at 50% of maximal effect) were determined by means of a 4 parameter fit on measurement data which were normalized to vehicle (DMSO) treated cells (=100%) and measurement readings taken immediately before compound exposure (=0%).

[3] = test system: NCI-H460 cells; assay: Proliferation assay, crystal violet (Method 3); type: cell-based; settings: Homo sapiens, 96 h; NCI-H460, 4 days; read-out: Inhibition of NCI-H460 cell proliferation IC50
Description: as §1

[4] = test system: DU145 cells; assay: Proliferation assay, crystal violet (Method 3); type: cell-based; settings: Homo sapiens, DU-145, 96 h; DU145, 4 days; read-out: Inhibition of DU145 cell proliferation IC50
Description: as §1

[5] = test system: HeLa-MaTu-ADR cells; assay: Proliferation assay, crystal violet (Method 3); type: cell-based; settings: Homo sapiens, 96 h, 4 days, read-out: Inhibition of HeLa-MaTu-ADR cell proliferation IC50
Description: as §1

[6] = test system: Caco-2 cells; assay: Proliferation assay, crystal violet (Method 3); type: cell-based; settings: Homo sapiens, 96 h; Caco-2, 4 days; read-out: Inhibition of Caco-2 cell proliferation IC50
Description: as §1

[7] = test system: B16F10 cells; assay: Proliferation assay, crystal violet (Method 3); type: cell-based; settings: Mus musculus, B16-F10, 96 h; B16F10, 4 days; read-out: Inhibition of B16F10 cell proliferation IC50
Description: as §1

[8] = test system: A2780 cells; assay: Proliferation assay, Cell Titre-Glo viability (Method 3); type: cell-based, human; settings: A2780, 72-hour exposure, read-out: Inhibition of A2780 cell proliferation IC50
Description: as §2, §3

| Structure (SMILES) | IC50 ([1]; Homo sapiens, 96 h) [nM] | IC50 [2] [nM] | IC50 [3] [nM] | IC50 [4] [nM] | IC50 [5] [nM] | IC50 [6] [nM] | IC50 [7] [nM] | IC50 ([8]; Homo sapiens, A2780, 72 h) [nM] | IC50 [8] [nM] | IC50 [1] [nM] |
| --- | --- | --- | --- | --- | --- | --- | --- | --- | --- | --- |
| CC(C)(C)OC(=O)N=S(C)(=O)Cc1cc2nc(c1)Nc1cc(c(F)cn1)-c1ccc(F)cc1OCCCN2 (racemic) [Example 7, (rac)-tert-butyl[{[15,19-difluoro-2,3,4,5-tetrahydro-11H-10,6-(azeno)-16,12-(metheno)-1,5,11,13-benzoxatriazacyclooctadecin-8-yl]methyl}(methyl)oxido-λ^6-sulfanylidene]carbamate] | 32 | 6.8 | 37 | 30 | 53 | 33 | 44 | 7 |  |  |
| CS(=N)(=O)Cc1cc2cc(c1)OCCCCSc1cc(F)ccc1-c1nc(ncc1F)N2 (racemic) [Example 22, (rac)-16,20-difluoro-9-[(S-methylsulfonimidoyl)methyl]-2,3,4,5-tetrahydro-12H-17,13-(azeno)-11,7-(metheno)-6,1,12,14-benzoxathiadiazacyclononadecine] | 102 | 23 | 115 | 36 | 105 | 74 | 110 | 45 |  |  |
| CS(=N)(=O)Cc1cc2nc(c1)OCCCCCc1cc(F)ccc1-c1cc(ncc1F)N2 (racemic) [Example 20, (rac)-2,19-difluoro-9-[(S-methylsulfonimidoyl)methyl]-14,15,16,17-tetrahydro-6H,13H-7,11-(azeno)-5,1-(metheno)-12,4,6-benzoxadiazacyclononadecine] | 408 | 79 | 579 | 347 | 360 | 350 | 867 | > 100 | 161 |  |
| CC(C)(C)OC(=O)N=S(C)(=O)Cc1cc2cc(c1)OCCCCNc1cc(F)ccc1-c1nc(ncc1F)N2 (racemic) [Example 15, (rac)-tert-butyl[{[16,20-difluoro-2,3,4,5-tetrahydro-1H,12H-13,17-(azeno)-11,7-(metheno)-6,1,12,14-benzoxatriazacyclononadecin-9-yl]methyl}(methyl)oxido-λ^6-sulfanylidene]carbamate] | 33 | 18 | 64 | 40 | 63 | 48 | 83 | 31 |  |  |
| CSCc1cc2nc(c1F)N(C)CCCCOc1cc(F)ccc1-c1cc(ncc1F)N2 [Example 12, 8,16,20-trifluoro-6-methyl-9-[(methylsulfanyl)methyl]-3,4,5,6-tetrahydro-2H,12H-11,7-(azeno)-13,17-(metheno)-1,6,12,14-benzoxatriazacyclononadecine] | 851 | 100 | 588 | 852 | 872 | 441 | 991 | > 100 |  |  |
| CS(=O)(Cc1cc2nc(c1)Nc1cc(c(F)cn1)-c1ccc(F)cc1OCCCCN2)=NC(=O)OCc1ccccc1 (racemic) [Example 2, (rac)-Benzyl[{[16,20-difluoro-3,4,5,6-tetrahydro-2H,12H-11,7-(azeno)-13,17-(metheno)-1,6,12,14-benzoxatriazacyclononadecin-9-yl]methyl}(methyl)oxido-λ^6-sulfanylidene]carbamate] | 77 | 3 | 80 | 93 | 119 | 98 | 77 | 38 |  | > 100 |
| CC(C)(C)OC(=O)N=S(C)(=O)Cc1cc2cc(c1)OCCCCSc1cc(F)ccc1-c1nc(ncc1F)N2 (racemic) [Example 21, (rac)-tert-butyl[{[16,20-difluoro-2,3,4,5-tetrahydro-12H-17,13-(azeno)-11,7-(metheno)-6,1,12,14-benzoxathiadiazacyclononadecin-9-yl]methyl}(methyl)oxido-λ^6-sulfanylidene]carbamate] | 327 | 162 | 476 | 327 | 334 | 243 | 543 | > 100 |  |  |
| CS(=N)(=O)Cc1cc2nc(c1)Nc1cc(c(F)cn1)-c1ccc(F)cc1OCCCN2 (racemic) [Example 8, (rac)-15,19-difluoro-8-[(S-methylsulfonimidoyl)methyl]-2,3,4,5-tetrahydro-11H-10,6-(azeno)-16,12-(metheno)-1,5,11,13-benzoxatriazacyclooctadecine] | 3.3 | 2.2 | 39 | 5.6 | 5 | 7.6 | 11 | 1.4 |  |  |
